Target: T1, Pdp (pyrimidine-nucleoside phosphorylase) (Mycoplasmoides genitalium, UniProt P47297)
T1 sequence (P47297 1-421): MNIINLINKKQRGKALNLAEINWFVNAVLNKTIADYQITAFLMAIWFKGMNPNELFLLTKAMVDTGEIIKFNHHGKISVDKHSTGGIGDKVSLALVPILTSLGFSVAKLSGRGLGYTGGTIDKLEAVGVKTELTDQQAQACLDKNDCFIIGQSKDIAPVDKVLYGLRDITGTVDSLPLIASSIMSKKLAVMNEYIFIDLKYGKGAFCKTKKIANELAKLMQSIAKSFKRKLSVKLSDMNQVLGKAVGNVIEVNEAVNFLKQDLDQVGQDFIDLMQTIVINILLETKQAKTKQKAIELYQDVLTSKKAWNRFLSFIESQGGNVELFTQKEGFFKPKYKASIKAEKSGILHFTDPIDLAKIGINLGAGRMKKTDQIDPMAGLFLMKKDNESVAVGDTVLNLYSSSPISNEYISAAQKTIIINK
Assay: uracil production at […] nm after NaOH stop
Format: biochemical
Conditions: 1.25-12.5 mM deoxyuridine; 10 mM phosphate; 10 mM Tris pH 7.3; 1 mM EDTA; 37 C

Q: For `O=c1cc[nH]c(=O)[nH]1` [uracil], which “uracil production at 290 nm after NaOH stop” value is on record?
A: We determined uracil production by A290.
